{
  "source": "ChEMBL document CHEMBL1201862",
  "about": "“PubChem BioAssay data set” (2004)",
  "key": {"[1]": {"biological_target": "Ras and Rab interactor 1/Tyrosine-protein kinase ABL1 (Homo sapiens, UniProt P00519+Q13671)", "sequence (P00519 whole entry)": "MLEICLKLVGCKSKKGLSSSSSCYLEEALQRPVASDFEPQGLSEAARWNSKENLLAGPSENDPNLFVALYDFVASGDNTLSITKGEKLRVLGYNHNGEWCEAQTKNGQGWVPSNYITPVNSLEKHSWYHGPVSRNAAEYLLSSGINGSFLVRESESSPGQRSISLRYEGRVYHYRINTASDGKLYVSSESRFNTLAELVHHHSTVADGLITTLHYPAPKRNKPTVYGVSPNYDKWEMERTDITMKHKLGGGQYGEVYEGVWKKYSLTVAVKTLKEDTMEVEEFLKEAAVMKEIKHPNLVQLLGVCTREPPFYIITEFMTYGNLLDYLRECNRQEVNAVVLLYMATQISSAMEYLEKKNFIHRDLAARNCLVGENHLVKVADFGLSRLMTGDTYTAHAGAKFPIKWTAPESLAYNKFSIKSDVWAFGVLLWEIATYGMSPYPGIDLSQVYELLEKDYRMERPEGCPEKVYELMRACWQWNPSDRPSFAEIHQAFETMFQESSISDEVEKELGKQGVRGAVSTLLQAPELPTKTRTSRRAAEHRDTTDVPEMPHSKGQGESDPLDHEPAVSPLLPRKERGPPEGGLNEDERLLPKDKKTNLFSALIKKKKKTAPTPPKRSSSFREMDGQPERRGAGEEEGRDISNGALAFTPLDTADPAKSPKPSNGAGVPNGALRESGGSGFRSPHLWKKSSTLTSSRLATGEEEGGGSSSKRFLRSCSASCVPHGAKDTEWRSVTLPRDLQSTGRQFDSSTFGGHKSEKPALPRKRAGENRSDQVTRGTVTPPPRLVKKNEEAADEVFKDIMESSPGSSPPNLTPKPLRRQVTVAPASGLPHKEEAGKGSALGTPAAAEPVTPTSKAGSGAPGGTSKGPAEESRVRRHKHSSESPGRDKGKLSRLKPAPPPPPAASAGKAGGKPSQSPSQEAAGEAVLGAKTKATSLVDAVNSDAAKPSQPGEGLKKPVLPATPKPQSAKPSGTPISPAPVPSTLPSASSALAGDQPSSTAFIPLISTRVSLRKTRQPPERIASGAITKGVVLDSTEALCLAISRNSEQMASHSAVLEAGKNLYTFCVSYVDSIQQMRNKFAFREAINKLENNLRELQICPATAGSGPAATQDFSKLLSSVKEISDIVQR", "sequence (Q13671 whole entry)": "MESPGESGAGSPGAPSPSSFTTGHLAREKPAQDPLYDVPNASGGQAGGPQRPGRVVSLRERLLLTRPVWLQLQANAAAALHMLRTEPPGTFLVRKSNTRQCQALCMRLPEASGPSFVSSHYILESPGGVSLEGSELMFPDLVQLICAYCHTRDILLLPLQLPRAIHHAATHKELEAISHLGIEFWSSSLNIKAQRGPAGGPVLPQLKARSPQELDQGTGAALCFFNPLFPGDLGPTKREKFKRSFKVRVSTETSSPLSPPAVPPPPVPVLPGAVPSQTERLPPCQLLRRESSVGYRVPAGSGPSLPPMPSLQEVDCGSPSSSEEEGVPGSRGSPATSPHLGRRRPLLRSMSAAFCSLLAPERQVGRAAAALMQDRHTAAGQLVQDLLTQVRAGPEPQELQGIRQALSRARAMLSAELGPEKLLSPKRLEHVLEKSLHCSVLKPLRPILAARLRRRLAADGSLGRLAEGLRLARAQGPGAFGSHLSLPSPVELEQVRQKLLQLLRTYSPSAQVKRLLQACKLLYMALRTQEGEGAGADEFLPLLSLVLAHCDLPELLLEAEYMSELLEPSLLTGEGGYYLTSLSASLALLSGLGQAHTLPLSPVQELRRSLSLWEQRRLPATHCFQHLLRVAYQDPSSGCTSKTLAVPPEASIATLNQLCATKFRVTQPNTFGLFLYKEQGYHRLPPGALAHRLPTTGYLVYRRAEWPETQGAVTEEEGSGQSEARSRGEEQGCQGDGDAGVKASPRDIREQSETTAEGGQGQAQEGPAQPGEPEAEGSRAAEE", "format": "functional"}, "[2]": {"test": "NIH:OVCAR-3 ovarian cancer cell cytotoxicity, dose response, PAX8 inhibitor project, plate reader, dry powder samples (AID 743044)", "format": "functional, cell-based"}, "[3]": {"test": "cytotoxicity in OVCAR8 ovarian cancer cells, dose response, PAX8 project, cell-based, plate reader, dry powder samples (AID 743197)", "format": "functional", "details": "OVCAR-8"}, "[4]": {"test": "ADAM10 protease inhibitors, dose response, selectivity assay for ADAM17 exosite inhibitor project, biochemical, FRET peptide substrate, recombinant human ADAM10 (AID 743259);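 further: ADAM10 enzyme cleaving a FRET peptide substrate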"}, "[5]": {"biological_target": "Disintegrin and metalloproteinase domain-containing protein 17 (Homo sapiens, UniProt P78536)", "sequence (P78536 whole entry, the tested form may be a part)": "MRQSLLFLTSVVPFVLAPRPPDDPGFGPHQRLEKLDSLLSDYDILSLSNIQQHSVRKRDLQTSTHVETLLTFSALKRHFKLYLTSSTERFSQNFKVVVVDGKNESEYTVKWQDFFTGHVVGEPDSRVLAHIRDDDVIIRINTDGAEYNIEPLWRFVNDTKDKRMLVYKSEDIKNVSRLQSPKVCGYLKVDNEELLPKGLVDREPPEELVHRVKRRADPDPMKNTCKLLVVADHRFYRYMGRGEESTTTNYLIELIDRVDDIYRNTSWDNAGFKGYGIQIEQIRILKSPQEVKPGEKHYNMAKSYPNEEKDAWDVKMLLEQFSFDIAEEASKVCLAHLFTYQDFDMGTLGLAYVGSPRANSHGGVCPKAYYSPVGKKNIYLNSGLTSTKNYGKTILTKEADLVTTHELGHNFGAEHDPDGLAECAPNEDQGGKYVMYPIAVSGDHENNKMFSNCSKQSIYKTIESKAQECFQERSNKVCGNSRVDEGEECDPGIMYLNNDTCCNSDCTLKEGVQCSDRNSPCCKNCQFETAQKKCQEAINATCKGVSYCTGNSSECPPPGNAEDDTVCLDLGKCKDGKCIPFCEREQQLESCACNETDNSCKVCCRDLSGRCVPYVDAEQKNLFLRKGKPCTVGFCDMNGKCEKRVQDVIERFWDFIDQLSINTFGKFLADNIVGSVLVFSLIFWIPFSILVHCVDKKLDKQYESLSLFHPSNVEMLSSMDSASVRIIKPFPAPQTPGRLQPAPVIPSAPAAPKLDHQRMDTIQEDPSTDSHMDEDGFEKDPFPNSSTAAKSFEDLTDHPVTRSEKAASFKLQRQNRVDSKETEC", "test": "exosite inhibitors of ADAM17, dose response, biochemical (AID 743260)"}, "[6]": {"test": "Luminescence-based cell-based high throughput dose response assay to identify activators of the DAF-12 from the parasite S. stercoralis (ssDAF-12).", "format": "functional"}, "[7]": {"test": "HEp-2 cell cytotoxicity, dose response, cytotoxicity control for RSV inhibitor project, HTS (AID 2410)", "format": "functional", "details": "human respiratory syncytial virus"}, "Vero": {"tested_on": "Vero", "test": "cells", "format": "functional, cell-based", "details": "Chlorocebus sabaeus"}, "Paired box protein Pax-8": {"biological_target": "Paired box protein Pax-8 (Homo sapiens, UniProt Q06710)", "sequence (Q06710 whole entry)": "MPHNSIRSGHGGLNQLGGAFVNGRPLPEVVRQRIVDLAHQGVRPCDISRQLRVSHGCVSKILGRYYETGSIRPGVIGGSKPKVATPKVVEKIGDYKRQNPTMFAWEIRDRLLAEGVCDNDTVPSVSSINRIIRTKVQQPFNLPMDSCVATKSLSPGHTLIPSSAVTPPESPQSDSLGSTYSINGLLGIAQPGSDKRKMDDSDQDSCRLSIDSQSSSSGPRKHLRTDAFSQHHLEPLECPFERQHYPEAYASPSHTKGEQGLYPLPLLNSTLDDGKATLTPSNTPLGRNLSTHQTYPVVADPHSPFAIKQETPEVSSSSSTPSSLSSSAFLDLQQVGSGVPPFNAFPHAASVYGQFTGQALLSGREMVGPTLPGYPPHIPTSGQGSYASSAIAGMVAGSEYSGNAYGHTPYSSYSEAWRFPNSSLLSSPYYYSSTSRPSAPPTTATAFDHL", "test": "inhibitors of PAX8-driven TPO luciferase reporter, dose response, RMG-I cells, cherry-pick (AID 687027);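 further: luciferase reporter driven by Pax8 target thyroperoxidase promoter measured by SteadyGlo luminescence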", "format": "functional, cell-based"}, "[8]": {"test": "P. falciparum Dd2 growth inhibitors, dose response, SYBR Green, cherry-picked samples (AID 1159567)", "format": "functional, cell-based"}, "[9]": {"test": "cytotoxicity in HEK-293T cells, dose response, cytotoxicity control for BCR NF-kB inhibitor project, luminescence, B-cell screen hits (AID 489021);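 further: cells exposed to compound for about 14 hours before viability readout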", "format": "functional, cell-based"}, "Prothrombin": {"biological_target": "Prothrombin (Homo sapiens, UniProt P00734)", "test": "Thrombin 1536 HTS Dose Response Confirmation. [Related pubchem assays: 1046 (Thrombin 1536 HTS; hits were confirmed in this assay)]", "format": "functional"}},
  "note": "Calls of active or inactive are those of the source.",
  "data": [
    {"smiles": "CC12CCC(=O)N1C(C(=O)N1CCN(S(=O)(=O)c3ccc(Br)cc3Cl)CC1)CS2", "note": "(centres undefined)", "values": [
      {"measurement": "IC50", "setting": "[1]", "result": "17 µM (inactive)"}
    ]},
    {"smiles": "C[C@@H]1CN([C@H](C)CO)C(=O)c2cc(NC(=O)Cc3ccccc3)ccc2O[C@@H](C)CCCCO[C@H]1CN(C)Cc1ccc(Cl)c(Cl)c1", "values": [
      {"measurement": "AC50", "setting": "[2]", "result": "28.2 µM (active)"},
      {"measurement": "AC50", "setting": "[3]", "result": "> 70 µM (inactive)"}
    ]},
    {"smiles": "COc1cc(/C=C(\\C#N)c2ccccn2)ccc1OCc1ccccc1", "values": [
      {"measurement": "IC50", "setting": "[4]", "result": "> 69.5 µM (inactive)"},
      {"measurement": "IC50", "setting": "[5]", "result": "> 69.5 µM (inactive)"}
    ]},
    {"smiles": "Nc1ccccc1C=C1Cc2ccccc2C1=O", "values": [
      {"measurement": "IC50", "setting": "[6]", "result": "> 67.6 µM (inactive)"}
    ]},
    {"smiles": "Cc1cc(NC(=O)COC(=O)c2c(Cl)cccc2Cl)no1", "values": [
      {"measurement": "CC50", "setting": "[7]", "result": "> 50 µM (active)"},
      {"measurement": "IC50", "setting": "Vero", "result": "> 25 µM (active)"},
      {"measurement": "IC50", "setting": "cells", "result": "21.8 µM (active)"}
    ]},
    {"smiles": "CC(C)CC#Cc1ccc2c(c1)O[C@H](CN(C)S(=O)(=O)c1ccc(F)cc1)[C@@H](C)CN([C@@H](C)CO)S2(=O)=O", "values": [
      {"measurement": "AC50", "setting": "Paired box protein Pax-8", "result": "10.3 µM (active)"},
      {"measurement": "AC50", "setting": "[2]", "result": "49.7 µM (active)"},
      {"measurement": "AC50", "setting": "[8]", "result": "5.25 µM (active)"},
      {"measurement": "AC50", "setting": "[3]", "result": "> 70 µM (inactive)"}
    ]},
    {"smiles": "Nc1[nH]c(C(=O)c2ccc(Br)cc2)c(-c2ccccn2)c1C(=O)NCCc1c[nH]c2ccccc12", "values": [
      {"measurement": "IC50", "setting": "[4]", "result": "16.4 µM (inactive)"},
      {"measurement": "IC50", "setting": "[5]", "result": "> 69.5 µM (inactive)"}
    ]},
    {"smiles": "COc1cc(/C=N/NC(=O)CSc2ccccn2)ccc1OC(C)C", "values": [
      {"measurement": "IC50", "setting": "[1]", "result": "19.1 µM (inactive)"}
    ]},
    {"smiles": "Oc1nc2ccccc2n1C1CCN(C(c2nnnn2C2CCCC2)C2CC2)CC1", "note": "(centres undefined)", "values": [
      {"measurement": "IC50", "setting": "[1]", "result": "17.3 µM (inactive)"}
    ]},
    {"smiles": "Cc1ccc2nc(NC(=O)CSCC(=O)OCC(=O)c3ccc(Br)cc3)sc2c1", "values": [
      {"measurement": "IC50", "setting": "[9]", "result": "> 80 µM (inactive)"},
      {"measurement": "IC50", "setting": "Prothrombin", "result": "0.0393 µM (active)"}
    ]}
  ]
}
